Columns and labels:
[1] = molecular target: Histamine H3 receptor (Homo sapiens, UniProt Q9Y5N1)
[2] = molecular target: 5-hydroxytryptamine receptor 2B (Homo sapiens, UniProt P41595); assay type: functional, cell-based
[3] = molecular target: T1, Adenosine receptor A3 (Homo sapiens, UniProt P0DMS8)
T1 sequence (P0DMS8 whole entry): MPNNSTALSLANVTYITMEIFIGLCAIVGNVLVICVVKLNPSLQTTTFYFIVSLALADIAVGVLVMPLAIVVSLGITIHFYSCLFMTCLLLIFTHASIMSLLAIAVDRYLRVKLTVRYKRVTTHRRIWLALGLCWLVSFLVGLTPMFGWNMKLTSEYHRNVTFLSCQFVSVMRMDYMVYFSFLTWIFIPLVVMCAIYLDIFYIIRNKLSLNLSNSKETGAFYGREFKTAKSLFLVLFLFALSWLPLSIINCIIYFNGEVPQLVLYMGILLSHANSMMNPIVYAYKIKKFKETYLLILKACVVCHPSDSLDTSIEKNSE

[4] = molecular target: Kappa-type opioid receptor (Homo sapiens, UniProt P41145)
Kappa-type opioid receptor, sequence (P41145 whole entry): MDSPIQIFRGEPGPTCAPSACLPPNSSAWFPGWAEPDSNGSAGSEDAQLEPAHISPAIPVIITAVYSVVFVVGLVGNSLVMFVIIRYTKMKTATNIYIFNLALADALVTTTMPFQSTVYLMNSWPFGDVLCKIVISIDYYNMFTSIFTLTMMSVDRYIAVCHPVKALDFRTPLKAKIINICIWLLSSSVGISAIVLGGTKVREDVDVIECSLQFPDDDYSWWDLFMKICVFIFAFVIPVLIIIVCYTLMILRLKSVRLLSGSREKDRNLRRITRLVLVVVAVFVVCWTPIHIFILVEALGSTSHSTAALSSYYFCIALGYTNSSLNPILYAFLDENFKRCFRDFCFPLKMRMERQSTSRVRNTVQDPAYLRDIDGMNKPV

[5] = molecular target: Beta-2 adrenergic receptor (Homo sapiens, UniProt P07550); assay type: functional, cell-based
Beta-2 adrenergic receptor, sequence (P07550 whole entry): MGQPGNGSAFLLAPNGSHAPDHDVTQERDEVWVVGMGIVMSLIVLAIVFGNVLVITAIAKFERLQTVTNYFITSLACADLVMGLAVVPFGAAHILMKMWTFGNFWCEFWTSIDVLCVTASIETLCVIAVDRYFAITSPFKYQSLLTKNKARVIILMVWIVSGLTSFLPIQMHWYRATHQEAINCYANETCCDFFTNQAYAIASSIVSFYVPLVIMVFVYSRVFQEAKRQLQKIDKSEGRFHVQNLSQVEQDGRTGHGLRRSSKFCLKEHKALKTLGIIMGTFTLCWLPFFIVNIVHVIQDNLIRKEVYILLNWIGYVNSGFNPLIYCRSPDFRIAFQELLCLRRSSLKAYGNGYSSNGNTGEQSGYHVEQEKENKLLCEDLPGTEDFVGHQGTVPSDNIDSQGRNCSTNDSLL

[6] = molecular target: Glutamate receptor ionotropic, NMDA 1 (Rattus norvegicus, UniProt P35439)
[7] = molecular target: Sodium-dependent dopamine transporter (Homo sapiens, UniProt Q01959)
Sodium-dependent dopamine transporter, sequence (Q01959 whole entry): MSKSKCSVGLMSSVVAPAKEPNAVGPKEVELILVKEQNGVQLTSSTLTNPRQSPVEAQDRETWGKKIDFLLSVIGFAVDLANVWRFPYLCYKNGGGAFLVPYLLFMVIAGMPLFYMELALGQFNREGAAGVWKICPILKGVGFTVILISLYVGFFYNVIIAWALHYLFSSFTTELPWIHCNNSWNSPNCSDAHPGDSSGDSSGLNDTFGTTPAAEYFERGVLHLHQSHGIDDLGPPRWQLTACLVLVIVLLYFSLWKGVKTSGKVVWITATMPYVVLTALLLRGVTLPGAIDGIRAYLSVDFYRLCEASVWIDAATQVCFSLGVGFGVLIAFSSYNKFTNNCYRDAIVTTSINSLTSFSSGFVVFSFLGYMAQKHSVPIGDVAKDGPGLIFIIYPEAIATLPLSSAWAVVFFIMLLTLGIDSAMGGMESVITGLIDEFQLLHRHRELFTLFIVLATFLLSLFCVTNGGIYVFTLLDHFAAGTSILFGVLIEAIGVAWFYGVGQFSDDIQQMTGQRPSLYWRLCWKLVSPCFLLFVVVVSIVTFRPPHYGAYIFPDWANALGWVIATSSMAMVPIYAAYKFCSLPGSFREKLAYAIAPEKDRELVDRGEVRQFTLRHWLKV

[8] = molecular target: T2, 5-hydroxytryptamine receptor 3A (Homo sapiens, UniProt P46098); assay type: functional
T2 sequence (P46098 whole entry): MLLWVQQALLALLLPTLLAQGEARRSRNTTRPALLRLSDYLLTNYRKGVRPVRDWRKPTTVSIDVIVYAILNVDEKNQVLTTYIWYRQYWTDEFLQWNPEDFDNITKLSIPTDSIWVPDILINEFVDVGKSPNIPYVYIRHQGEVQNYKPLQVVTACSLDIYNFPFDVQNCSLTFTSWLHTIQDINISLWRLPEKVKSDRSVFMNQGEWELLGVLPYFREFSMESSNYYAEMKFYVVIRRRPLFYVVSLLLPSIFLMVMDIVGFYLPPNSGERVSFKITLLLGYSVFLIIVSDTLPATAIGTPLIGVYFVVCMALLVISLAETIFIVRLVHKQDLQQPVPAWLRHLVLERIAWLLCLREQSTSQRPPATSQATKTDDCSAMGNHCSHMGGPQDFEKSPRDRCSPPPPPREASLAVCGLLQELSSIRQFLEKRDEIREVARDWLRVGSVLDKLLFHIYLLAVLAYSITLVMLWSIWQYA

[9] = molecular target: T3, 5-hydroxytryptamine receptor 1A (Homo sapiens, UniProt P08908); assay type: functional, cell-based
T3 sequence (P08908 whole entry): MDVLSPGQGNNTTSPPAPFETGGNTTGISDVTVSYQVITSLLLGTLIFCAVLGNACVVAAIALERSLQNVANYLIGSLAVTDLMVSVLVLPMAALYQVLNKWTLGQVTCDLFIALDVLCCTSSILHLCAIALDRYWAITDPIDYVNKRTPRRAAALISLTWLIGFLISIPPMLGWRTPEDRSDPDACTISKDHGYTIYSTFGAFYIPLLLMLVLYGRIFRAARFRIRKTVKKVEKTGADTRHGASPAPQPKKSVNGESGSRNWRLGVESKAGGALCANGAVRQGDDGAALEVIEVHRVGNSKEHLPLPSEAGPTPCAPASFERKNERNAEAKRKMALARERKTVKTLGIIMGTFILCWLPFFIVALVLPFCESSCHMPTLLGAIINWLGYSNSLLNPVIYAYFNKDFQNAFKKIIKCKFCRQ

[10] = molecular target: T4, Estrogen receptor (Homo sapiens, UniProt P03372)
T4 sequence (P03372 whole entry): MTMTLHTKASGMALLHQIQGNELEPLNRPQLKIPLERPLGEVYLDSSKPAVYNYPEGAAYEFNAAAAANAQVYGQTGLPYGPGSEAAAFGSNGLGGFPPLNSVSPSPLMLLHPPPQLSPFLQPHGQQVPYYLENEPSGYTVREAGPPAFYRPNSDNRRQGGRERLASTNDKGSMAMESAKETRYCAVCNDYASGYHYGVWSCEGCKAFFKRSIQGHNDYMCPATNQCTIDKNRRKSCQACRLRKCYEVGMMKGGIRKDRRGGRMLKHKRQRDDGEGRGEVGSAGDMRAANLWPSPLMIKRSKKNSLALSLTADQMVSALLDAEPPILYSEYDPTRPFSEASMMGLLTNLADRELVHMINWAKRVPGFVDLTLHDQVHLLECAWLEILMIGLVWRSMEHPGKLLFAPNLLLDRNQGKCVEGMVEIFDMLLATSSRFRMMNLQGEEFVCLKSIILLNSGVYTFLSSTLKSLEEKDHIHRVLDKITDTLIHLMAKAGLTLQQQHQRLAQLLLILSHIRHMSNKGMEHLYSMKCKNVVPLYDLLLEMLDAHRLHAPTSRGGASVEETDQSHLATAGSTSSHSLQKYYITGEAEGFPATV

[11] = molecular target: Histamine H1 receptor (Homo sapiens, UniProt P35367)
Histamine H1 receptor, sequence (P35367 whole entry): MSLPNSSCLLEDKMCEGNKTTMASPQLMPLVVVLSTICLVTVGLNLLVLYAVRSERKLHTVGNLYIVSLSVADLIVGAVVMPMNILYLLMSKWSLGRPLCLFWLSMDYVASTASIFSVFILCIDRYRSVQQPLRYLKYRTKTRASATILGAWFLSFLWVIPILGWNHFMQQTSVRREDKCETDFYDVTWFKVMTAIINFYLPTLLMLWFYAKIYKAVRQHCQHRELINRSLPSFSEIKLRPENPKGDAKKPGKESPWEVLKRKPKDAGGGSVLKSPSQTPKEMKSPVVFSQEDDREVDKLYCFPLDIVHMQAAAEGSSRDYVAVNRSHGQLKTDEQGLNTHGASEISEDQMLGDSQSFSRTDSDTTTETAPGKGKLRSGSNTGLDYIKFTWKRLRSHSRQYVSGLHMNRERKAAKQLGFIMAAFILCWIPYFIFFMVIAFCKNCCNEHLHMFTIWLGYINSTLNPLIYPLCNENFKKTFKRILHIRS

[12] = molecular target: D(3) dopamine receptor (Homo sapiens, UniProt P35462)
D(3) dopamine receptor, sequence (P35462 whole entry): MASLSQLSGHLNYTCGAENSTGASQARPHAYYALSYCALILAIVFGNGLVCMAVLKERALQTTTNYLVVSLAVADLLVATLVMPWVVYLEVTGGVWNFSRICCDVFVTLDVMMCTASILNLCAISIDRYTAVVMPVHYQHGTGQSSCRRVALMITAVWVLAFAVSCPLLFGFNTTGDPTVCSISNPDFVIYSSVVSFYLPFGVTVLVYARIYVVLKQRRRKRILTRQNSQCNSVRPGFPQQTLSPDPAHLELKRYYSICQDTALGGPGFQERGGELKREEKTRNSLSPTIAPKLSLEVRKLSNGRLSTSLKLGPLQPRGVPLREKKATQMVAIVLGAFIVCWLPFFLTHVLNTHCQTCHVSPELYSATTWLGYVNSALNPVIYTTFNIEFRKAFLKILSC

[13] = molecular target: Muscarinic acetylcholine receptor M3 (Homo sapiens, UniProt P20309)
Muscarinic acetylcholine receptor M3, sequence (P20309 whole entry): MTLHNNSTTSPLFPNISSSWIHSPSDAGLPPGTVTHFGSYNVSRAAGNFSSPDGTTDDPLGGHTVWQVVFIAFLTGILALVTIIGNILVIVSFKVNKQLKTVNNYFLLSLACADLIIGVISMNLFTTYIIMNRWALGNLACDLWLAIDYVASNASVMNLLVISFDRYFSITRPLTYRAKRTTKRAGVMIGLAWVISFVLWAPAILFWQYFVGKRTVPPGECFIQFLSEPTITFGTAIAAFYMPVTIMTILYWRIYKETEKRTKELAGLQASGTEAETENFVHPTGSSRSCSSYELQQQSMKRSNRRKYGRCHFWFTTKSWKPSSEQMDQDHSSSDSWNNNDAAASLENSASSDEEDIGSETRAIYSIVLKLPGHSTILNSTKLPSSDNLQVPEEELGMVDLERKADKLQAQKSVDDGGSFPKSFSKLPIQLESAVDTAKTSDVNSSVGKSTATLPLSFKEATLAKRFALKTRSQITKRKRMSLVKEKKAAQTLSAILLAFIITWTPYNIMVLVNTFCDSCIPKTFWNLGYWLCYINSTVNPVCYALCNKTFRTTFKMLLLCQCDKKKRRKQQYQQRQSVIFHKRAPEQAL

[14] = molecular target: T5, Alpha-1A adrenergic receptor (Homo sapiens, UniProt P35348); assay type: functional, cell-based
T5 sequence (P35348 whole entry): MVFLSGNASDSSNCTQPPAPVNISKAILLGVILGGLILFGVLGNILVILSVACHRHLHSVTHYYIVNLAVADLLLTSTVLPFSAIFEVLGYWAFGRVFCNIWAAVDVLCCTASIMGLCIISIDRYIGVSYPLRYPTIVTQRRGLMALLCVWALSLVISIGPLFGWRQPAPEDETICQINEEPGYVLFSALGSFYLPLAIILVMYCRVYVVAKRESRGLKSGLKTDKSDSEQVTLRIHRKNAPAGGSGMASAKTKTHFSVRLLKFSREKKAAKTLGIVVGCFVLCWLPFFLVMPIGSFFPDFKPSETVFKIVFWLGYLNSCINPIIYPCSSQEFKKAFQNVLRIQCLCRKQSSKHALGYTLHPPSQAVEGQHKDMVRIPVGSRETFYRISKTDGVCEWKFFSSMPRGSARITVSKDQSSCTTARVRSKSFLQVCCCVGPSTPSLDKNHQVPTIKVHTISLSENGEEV

[15] = molecular target: 5-hydroxytryptamine receptor 2A (Homo sapiens, UniProt P28223); assay type: functional, cell-based
5-hydroxytryptamine receptor 2A, sequence (P28223 whole entry): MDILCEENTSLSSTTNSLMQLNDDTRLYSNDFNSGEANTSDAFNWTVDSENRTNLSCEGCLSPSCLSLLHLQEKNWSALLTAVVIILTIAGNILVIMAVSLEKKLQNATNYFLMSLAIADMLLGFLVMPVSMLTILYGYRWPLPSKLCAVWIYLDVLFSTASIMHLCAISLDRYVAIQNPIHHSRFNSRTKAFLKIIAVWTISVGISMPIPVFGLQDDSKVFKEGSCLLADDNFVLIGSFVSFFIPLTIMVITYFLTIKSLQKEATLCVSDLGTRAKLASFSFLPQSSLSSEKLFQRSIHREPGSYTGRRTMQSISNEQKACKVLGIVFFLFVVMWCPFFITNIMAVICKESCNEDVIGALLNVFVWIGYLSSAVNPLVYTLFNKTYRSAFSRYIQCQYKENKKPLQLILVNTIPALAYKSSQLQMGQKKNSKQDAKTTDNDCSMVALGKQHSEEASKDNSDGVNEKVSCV
Also: assay procedure not described here.

Histamine H3 receptor, sequence (Q9Y5N1 whole entry): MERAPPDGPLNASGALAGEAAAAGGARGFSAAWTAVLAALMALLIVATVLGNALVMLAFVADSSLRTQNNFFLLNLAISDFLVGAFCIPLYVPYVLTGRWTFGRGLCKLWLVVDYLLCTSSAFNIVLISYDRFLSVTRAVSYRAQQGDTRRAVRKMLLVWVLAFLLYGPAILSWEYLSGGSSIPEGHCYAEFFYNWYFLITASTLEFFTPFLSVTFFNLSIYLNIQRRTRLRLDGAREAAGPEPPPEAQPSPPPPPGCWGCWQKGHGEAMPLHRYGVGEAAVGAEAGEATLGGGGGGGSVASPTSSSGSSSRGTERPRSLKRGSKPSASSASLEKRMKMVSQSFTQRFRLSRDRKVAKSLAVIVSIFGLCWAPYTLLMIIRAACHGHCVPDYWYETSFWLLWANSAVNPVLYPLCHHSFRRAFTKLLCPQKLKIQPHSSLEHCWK
5-hydroxytryptamine receptor 2B, sequence (P41595 whole entry): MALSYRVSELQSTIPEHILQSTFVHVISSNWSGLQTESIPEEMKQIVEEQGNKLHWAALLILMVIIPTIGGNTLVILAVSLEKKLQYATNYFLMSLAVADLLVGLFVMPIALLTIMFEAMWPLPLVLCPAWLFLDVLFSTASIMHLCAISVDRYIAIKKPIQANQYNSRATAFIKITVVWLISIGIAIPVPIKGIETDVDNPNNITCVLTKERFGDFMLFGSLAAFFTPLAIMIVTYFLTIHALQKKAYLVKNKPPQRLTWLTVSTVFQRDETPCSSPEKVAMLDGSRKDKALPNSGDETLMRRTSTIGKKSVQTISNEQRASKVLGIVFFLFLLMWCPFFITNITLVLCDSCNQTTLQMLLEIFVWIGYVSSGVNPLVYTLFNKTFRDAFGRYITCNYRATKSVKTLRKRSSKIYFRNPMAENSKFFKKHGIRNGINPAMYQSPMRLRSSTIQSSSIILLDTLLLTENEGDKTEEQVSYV

| Compound | AC50 [1] | AC50 [2] | AC50 [3] | AC50 [4] | AC50 [5] | AC50 [6] | AC50 [7] | AC50 [8] | AC50 [9] | AC50 [10] | AC50 [11] | AC50 [12] | AC50 [13] | AC50 [14] | AC50 [15] |
| --- | --- | --- | --- | --- | --- | --- | --- | --- | --- | --- | --- | --- | --- | --- | --- |
| C[N+](C)(C)CCOP(=O)([O-])OC[C@H](O)CO | > 30 µM | > 30 µM | > 30 µM | > 30 µM | > 30 µM | > 30 µM | > 30 µM | > 30 µM | > 30 µM | – | – | – | – | – | – |
| CCC1(c2ccc(N)cc2)CCC(=O)NC1=O (centres undefined) [AMINOGLUTETHIMIDE] | > 30 µM | – | > 30 µM | > 30 µM | > 30 µM | > 30 µM | > 30 µM | > 30 µM | – | – | – | – | – | – | – |
| O=C(/C=C/c1cccc(S(=O)(=O)Nc2ccccc2)c1)NO [BELINOSTAT] | > 10 µM | – | > 30 µM | > 10 µM | – | > 10 µM | > 10 µM | > 30 µM | – | 27.9 µM | > 10 µM | > 30 µM | > 30 µM | – | – |
| CC(O)(CS(=O)(=O)c1ccc(F)cc1)C(=O)Nc1ccc(C#N)c(C(F)(F)F)c1 (centres undefined) [BICALUTAMIDE] | > 30 µM | > 10 µM | > 30 µM | > 10 µM | > 30 µM | > 10 µM | > 30 µM | > 10 µM | > 10 µM | – | – | > 30 µM | – | > 3 µM | – |
| O=C(O)COCCN1CCN(C(c2ccccc2)c2ccc(Cl)cc2)CC1 (centres undefined) [CETIRIZINE] | > 10 µM | – | > 30 µM | > 10 µM | > 30 µM | > 10 µM | – | > 30 µM | > 10 µM | > 30 µM | – | – | > 10 µM | > 30 µM | – |
| NC[C@H]1CC[C@H](C(=O)Oc2ccc(CCC(=O)O)cc2)CC1 [CETRAXATE] | – | > 30 µM | – | > 30 µM | > 30 µM | > 30 µM | – | > 30 µM | > 30 µM | > 30 µM | – | > 30 µM | – | – | – |
| CN(C)CCCN1c2ccccc2CCc2ccccc21 [IMIPRAMINE] | > 10 µM | 5 µM | 30.8 µM | – | > 30 µM | – | – | > 10 µM | > 10 µM | – | – | – | – | – | – |
| CCC[C@@H]1C[C@@H](C(=O)N[C@@H]([C@H]2O[C@H](SC)[C@H](O)[C@@H](O)[C@H]2O)[C@@H](C)O)N(C)C1 [LINCOMYCIN] | – | > 30 µM | > 10 µM | > 10 µM | > 30 µM | > 10 µM | > 10 µM | > 30 µM | > 10 µM | – | – | – | – | – | – |
| CN(Cc1cnc2nc(N)nc(N)c2n1)c1ccc(C(=O)N[C@@H](CCC(=O)O)C(=O)O)cc1 [METHOTREXATE] | > 10 µM | > 10 µM | > 30 µM | > 10 µM | > 30 µM | > 10 µM | > 30 µM | > 30 µM | > 10 µM | – | – | – | – | – | – |
| O=C1c2cccc3c2[C@H](CCC3)CN1[C@@H]1CN2CCC1CC2 [PALONOSETRON] | > 30 µM | > 30 µM | > 30 µM | > 30 µM | – | > 30 µM | > 30 µM | 0.0021 µM | – | – | – | – | 28 µM | – | > 30 µM |
| CC(C)c1cccc(C(C)C)c1O [PROPOFOL] | > 30 µM | > 30 µM | > 30 µM | – | > 30 µM | – | > 30 µM | > 30 µM | > 30 µM | – | – | – | – | – | – |
| CCCN1CC(NS(=O)(=O)N(CC)CC)CC2Cc3c(O)cccc3CC21 (centres undefined) [QUINAGOLIDE] | > 30 µM | – | > 30 µM | 1.7 µM | > 30 µM | > 30 µM | > 30 µM | > 30 µM | – | – | 2.8 µM | – | > 30 µM | – | – |
| CCCSc1nc(N[C@@H]2C[C@H]2c2ccc(F)c(F)c2)c2nnn([C@@H]3C[C@H](OCCO)[C@@H](O)[C@H]3O)c2n1 [TICAGRELOR] | – | – | – | – | – | – | – | – | – | > 30 µM | – | 20.5 µM | – | > 10 µM | – |
| Cc1ccc(C(=O)C(C)CN2CCCCC2)cc1 (centres undefined) [TOLPERISONE] | – | – | – | – | – | – | – | – | – | > 30 µM | – | 2.52 µM | – | > 30 µM | – |

Source: ChEMBL document CHEMBL5291721, “A preclinical secondary pharmacology resource illuminates target-adverse drug reaction associations of marketed drugs” (Nat Commun, 2023)
